Reference: patent US20140107109A1, “AMINO-DIHYDROTHIAZINE AND AMINO-DIOXIDO DIHYDROTHIAZINE COMPOUNDS AS BETA-SECRETASE ANTAGONISTS AND METHODS OF USE” (Amgen Inc., priority 2012, published 2014)
Like-named read-outs stand apart in the source and are kept apart here.

How the values were obtained:
Cathepsin D (Cat D) = target: T1, Cathepsin D (Cat D) (Homo sapiens, UniProt P07339); assay: In vitro enzymatic Cathepsin D (Cat D) FRET assay; format: biochemical; conditions: read-out: CatD IC50
T1 construct: Recombinant Cat D was expressed in CHO cells; made in house; host or cells: CHO cells
T1 sequence (P07339 65-412, species assumed): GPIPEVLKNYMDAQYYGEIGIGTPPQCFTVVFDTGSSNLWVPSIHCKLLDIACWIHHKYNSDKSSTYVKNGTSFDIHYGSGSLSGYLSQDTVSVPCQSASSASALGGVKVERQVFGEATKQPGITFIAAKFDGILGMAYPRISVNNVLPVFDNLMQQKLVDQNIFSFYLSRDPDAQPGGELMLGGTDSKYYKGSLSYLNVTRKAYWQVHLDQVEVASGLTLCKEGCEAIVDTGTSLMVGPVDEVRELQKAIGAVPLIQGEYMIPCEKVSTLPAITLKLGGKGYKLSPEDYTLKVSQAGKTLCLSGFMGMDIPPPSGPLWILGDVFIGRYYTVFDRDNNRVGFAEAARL
Method in brief: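 Recombinant Cat D expressed in CHO cells, used at 9 nM and pre-incubated one hour with serially diluted inhibitor in DMSO. Peptide substrate carries a fluorophore and quencher flanking the cleavage site; reaction stopped with Tris buffer raising pH to neutrality, then fluorescence read.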

[1] = target: Beta Secretase enzyme (BACE1) (Homo sapiens, UniProt P56817); assay: In vitro enzymatic BACE FRET assay; format: biochemical; conditions: read-out: BACE1 FRET assay IC50
Chain of Beta Secretase enzyme (BACE1) (P56817 46-501): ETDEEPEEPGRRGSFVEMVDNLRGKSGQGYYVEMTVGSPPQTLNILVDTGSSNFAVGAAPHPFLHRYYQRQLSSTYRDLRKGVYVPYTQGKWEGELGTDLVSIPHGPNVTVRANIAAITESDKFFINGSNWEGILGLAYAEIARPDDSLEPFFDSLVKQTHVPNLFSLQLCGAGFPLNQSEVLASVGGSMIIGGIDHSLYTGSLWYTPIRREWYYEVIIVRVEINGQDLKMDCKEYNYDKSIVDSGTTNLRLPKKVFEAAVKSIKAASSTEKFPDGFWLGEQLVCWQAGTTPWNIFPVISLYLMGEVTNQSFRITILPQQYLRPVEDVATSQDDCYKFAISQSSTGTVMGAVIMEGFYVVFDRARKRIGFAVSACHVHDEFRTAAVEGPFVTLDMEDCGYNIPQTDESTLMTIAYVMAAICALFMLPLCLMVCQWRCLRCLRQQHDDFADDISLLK
Method in brief: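 BACE1 cleavage of a 50 nM fluorophore/quencher peptide FRET substrate ran for one hour in 0.05 M acetate pH 4.2, 10% DMSO, 100 uM genapol. Tris buffer raised pH to neutrality to stop the reaction before fluorescence was read (excitation 488 nm, […]).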

[2] = system: Aβ40 in conditioned medium of cells stably expressing Amyloid Precursor Protein (APP); assay: In vitro BACE cell-based assay (HEK cell assay), Aβ40 sandwich ELISA
Method in brief: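 APP-stably expressing cells (40K/well, grown 24 h in DMEM/10% FBS) were treated 24 h with compounds in 10-point dose response starting at 100 μM or 10 μM, 0.1% DMSO final. Secreted Aβ40 was measured by sandwich ELISA (pAb40 capture, biotinylated 6E10 detection, europium time-resolved fluorescence); IC50 from percent inhibition.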

[3] = Homo sapiens, HEK293, average IC50, cell assay
[4] = Homo sapiens, HEK293, Aβ40, 24 h incubation
[5] = Homo sapiens, HEK293, average IC50, HEK cell assay

Row | Compound | IC50 (Cathepsin D (Cat D)) [µM] | IC50 ([1]; average IC50, enzyme assay) [nM] | IC50 [2, 3] [nM] | IC50 [1] [nM] | IC50 [2, 4] [nM] | IC50 [2, 5] [nM] | IC50 [2] [nM] | IC50 ([2]; Homo sapiens, HEK293) [nM]
1 | NC1=N[C@](CF)(c2cc(Nc3ncnc4cc(Cl)cnc34)ccc2F)CS(=O)(=O)C12CCC2 [Example 240, N-(3-((7S)-9-amino-7-(fluoromethyl)-5,5-dioxido-5-thia-8-azaspiro[3.5]non-8-en-7-yl)-4-fluorophenyl)-7-chloropyrido[3,2-d]pyrimidin-4-amine] | 57.1 | 1.7 | 27.2 | – | – | – | – | –
2 | CC1(C)C(N)=N[C@](C)(c2cc(Nc3nccc4cc(C#N)cnc34)ccc2F)CS1(=O)=O [Example 48, 8-((3-((3R)-5-amino-3,6,6-trimethyl-1,1-dioxido-3,6-dihydro-2H-1,4-thiazin-3-yl)-4-fluorophenyl)amino)-1,7-naphthyridine-3-carbonitrile] | 66.7 | – | – | 0.54 | 1.9 | – | – | –
3 | CC1(C)C(N)=N[C@](C)(c2cc(C(=O)Nc3ccc(Cl)cc3)ccc2F)CS1(=O)=O [Example 153, (R)-3-(5-amino-3,6,6-trimethyl-1,1-dioxido-3,6-dihydro-2H-1,4-thiazin-3-yl)-N-(4-chlorophenyl)-4-fluorobenzamide] | 237 | 4680 | 3210 | – | – | – | – | –
4 | COc1cnc(C(=O)Nc2ccc(F)c([C@]3(CF)CS(=O)(=O)C(C)(C)C(N)=N3)c2)c(OC)n1 [Example 155, (S)—N-(3-(5-amino-3-(fluoromethyl)-6,6-dimethyl-1,1-dioxido-3,6-dihydro-2H-1,4-thiazin-3-yl)-4-fluorophenyl)-3,5-dimethoxypyrazine-2-carboxamide] | 470 | 4.3 | 35.1 | – | – | – | – | –
5 | Cc1nc2c(Nc3ccc(F)c([C@]4(C)CS(=O)(=O)C(C)(C)C(N)=N4)c3)nccc2s1 [Example 54, N-(3-((3R)-5-amino-3,6,6-trimethyl-1,1-dioxido-3,6-dihydro-2H-1,4-thiazin-3-yl)-4-fluorophenyl)-2-methyl[1,3]thiazolo[4,5-c]pyridin-4-amine] | > 400 | – | – | 17.2 | 137 | – | – | –
6 | COc1cnc2c(Nc3ccc(F)c([C@]4(C)CS(=O)(=O)C5(CC(F)(F)C5)C(N)=N4)c3)nccc2n1 [Example 128, (R)-9-amino-2,2-difluro-7-(2-fluoro-5-((2-methoxypyrido[3,4b]pyrazin-5-yl)amino)phenyl)-7-methyl-5-thia-8-azaspiro[3.5]non-8-ene 5,5-dioxide] | 330 | 25.9 | 199 | – | – | – | – | –
7 | CC1(C)C(N)=N[C@](CF)(c2cc(Nc3nccc4nc(C(F)(F)F)cnc34)ccc2F)CS1(=O)=O [Example 234, N-(3-((3S)-5-amino-3-(fluoromethyl)-6,6-dimethyl-1,1-dioxido-3,6-dihydro-2H-1,4-thiazin-3-yl)-4-fluorophenyl)-2-(trifluoromethyl)pyrido[3,4-b]pyrazin-5-amine] | > 14.8 | 2.03 | 105 | – | – | – | – | –
8 | Cc1cnc(C(=O)Nc2ccc(F)c([C@]3(C)CS(=O)(=O)C(C)(C)C(N)=N3)c2)cn1 [Example 110, (R)—N-(3-(5-amino-3,6,6-trimethyl-1,1-dioxido-3,6-dihydro-2H-1,4-thiazin-3-yl)-4-fluorophenyl)-5-methylpyrazine-2-carboxamide] | 1840 | – | – | 20.2 | – | – | – | 14.4
9 | Cc1cccc(Oc2ccc(F)c([C@]3(C)CS(=O)(=O)C(C)(C)C(N)=N3)c2)n1 [Example 266, (5R)-5-(2-fluoro-5-((6-methyl-2-pyridinyl)oxy)phenyl)-2,2,5-trimethyl-5,6-dihydro-2H-1,4-thiazin-3-amine 1,1-dioxide] | 407 | 413 | 427 | – | – | – | – | –
10 | CC1(C)C(N)=N[C@](C)(c2cc(Nc3ncnc4cc(Cl)cnc34)ccc2F)CS1(=O)=O [Example 52, N-(3-((3R)-5-amino-3,6,6-trimethyl-1,1-dioxido-3,6-dihydro-2H-1,4-thiazin-3-yl)-4-fluorophenyl)-7-chloropyrido[3,2-d]pyrimidin-4-amine] | 36 | – | – | 2 | 2.3 | – | – | –
11 | Cc1cc(C(F)F)cnc1C(=O)Nc1ccc(F)c([C@@]2(C)N=C(N)C3(CCC3)S(=O)(=O)[C@@H]2F)c1 [Example 136, N-(3-((6S,7R)-9-amino-6-fluoro-7-methyl-5,5-dioxido-5-thia-8-azaspiro[3.5]non-8-en-7-yl)-4-fluorophenyl)-5-(difluoromethyl)-3-methylpicolinamide] | 236 | – | – | 2.1 | – | – | – | 4.9
12 | CC1(C)C(N)=N[C@](C)(c2cc(NC(=O)c3cnc(C(F)(F)F)cn3)ccc2F)CS1(=O)=O [Example 21, N-(3-((3R)-5-amino-3,6,6-trimethyl-1,1-dioxido-3,6-dihydro-2H-1,4-thiazin-3-yl)-4-fluorophenyl)-5-(trifluoromethyl)-2-pyrazinecarboxamide] | > 400 | – | – | 7.4 | 11 | – | – | –
13 | N-(3-((7R)-9-amino-7-(fluoromethyl)-5,5-dioxido-5-thia-8-azaspiro[3.5]non-8-en-7-yl)-4-fluorophenyl)-5-(difluoromethoxy)-3-methyl-2-pyridinecarboxamide, N-(3-((7S)-9-amino-7-(fluoromethyl)-5,5-dioxido-5-thia-8-azaspiro[3.5]non-8-en-7-yl)-4-fluorophenyl)-5-(difluoromethoxy)-3-methyl-2-pyridinecarboxamide [Example 410] | 170 | – | – | 2.3 | – | – | 11.9 | –
14 | CCOc1cnc2c(Nc3ccc(F)c([C@]4(CF)CS(=O)(=O)C(C)(C)C(N)=N4)c3)nccc2n1 [Example 237, N-(3-((3S)-5-amino-3-(fluoromethyl)-6,6-dimethyl-1,1-dioxido-3,6-dihydro-2H-1,4-thiazin-3-yl)-4-fluorophenyl)-2-ethoxypyrido[3,4-b]pyrazin-5-amine] | 661 | 2.85 | 40.9 | – | – | – | – | –

Continued, in another order:

Row | IC50 (Cathepsin D (Cat D)) [µM] | IC50 ([1]; average IC50, enzyme assay) [nM] | IC50 [2, 3] [nM] | IC50 [1] [nM] | IC50 [2, 4] [nM] | IC50 [2, 5] [nM] | IC50 [2] [nM] | Compound | IC50 ([2]; Homo sapiens, HEK293) [nM]
15 | 283 | 0.3 | – | – | – | 0.5 | – | Cc1cc(C#N)cnc1C(=O)Nc1ccc(F)c([C@]2(C)CS(=O)(=O)C(C)(C)C(N)=N2)c1 [Example 355, N-(3-((3R)-5-amino-3,6,6-trimethyl-1,1-dioxido-3,6-dihydro-2H-1,4-thiazin-3-yl)-4-fluorophenyl)-5-cyano-3-methyl-2-pyridinecarboxamide] | –
16 | 364 | 840 | 424 | – | – | – | – | CC1(C)C(N)=N[C@](C)(c2cc(Oc3ccc(F)cn3)ccc2F)CS1(=O)=O [Example 275, (5R)-5-(2-fluoro-5-((5-fluoro-2-pyridinyl)oxy)phenyl)-2,2,5-trimethyl-5,6-dihydro-2H-1,4-thiazin-3-amine 1,1-dioxide] | –
17 | 282 | 127 | – | – | – | 198 | – | CC1(C)C(N)=N[C@](C)(c2cc(Oc3nccc4cc(Cl)cnc34)ccc2F)CS1(=O)=O [Example 304, (5R)-5-(5-((3-chloro-1,7-naphthyridin-8-yl)oxy)-2-fluorophenyl)-2,2,5-trimethyl-5,6-dihydro-2H-1,4-thiazin-3-amine 1,1-dioxide] | –
18 | 44.9 | 0.23 | – | – | – | 1 | – | CC#CCOc1cnc(C(=O)Nc2ccc(F)c([C@@]3(C)N=C(N)C(C)(C)S(=O)(=O)C3F)c2)cn1 (stereo partly drawn) [Example 332, N-(3-((3R)-5-amino-2-fluoro-3,6,6-trimethyl-1,1-dioxido-3,6-dihydro-2H-1,4-thiazin-3-yl)-4-fluorophenyl)-5-(2-butyn-1-yloxy)-2-pyrazinecarboxamide] | –
19 | 282 | – | – | 1.8 | – | – | – | CC1(C)C(N)=N[C@](CF)(c2cc(NC(=O)c3ncc(Cl)nc3Cl)ccc2F)CS1(=O)=O [Example 380, N-(3-((3S)-5-amino-3-(fluoromethyl)-6,6-dimethyl-1,1-dioxido-3,6-dihydro-2H-1,4-thiazin-3-yl)-4-fluorophenyl)-3,5-dichloro-2-pyrazinecarboxamide] | 999
20 | 232 | 263 | – | – | – | 515 | – | Cc1ccc(C#N)c(Oc2ccc(F)c([C@]3(C)CS(=O)(=O)C(C)(C)C(N)=N3)c2)n1 [Example 296, 2-(3-((3R)-5-amino-3,6,6-trimethyl-1,1-dioxido-3,6-dihydro-2H-1,4-thiazin-3-yl)-4-fluorophenoxy)-6-methyl-3-pyridinecarbonitrile] | –
21 | 147 | 341 | 359 | – | – | – | – | CC1(C)C(N)=N[C@](C)(c2cc(Oc3ncccc3C(F)(F)F)ccc2F)CS1(=O)=O [Example 278, (5R)-5-(2-fluoro-5-((3-(trifluoromethyl)-2-pyridinyl)oxy)phenyl)-2,2,5-trimethyl-5,6-dihydro-2H-1,4-thiazin-3-amine 1,1-dioxide] | –
22 | 111 | 0.6 | 31.4 | – | – | – | – | CC1(C)C(N)=N[C@](CF)(c2cc(Nc3ncc(F)c4cc(O)cnc34)ccc2F)CS1(=O)=O [Example 433, 8-((3-((3S)-5-amino-3-(fluoromethyl)-6,6-dimethyl-1,1-dioxido-3,6-dihydro-2H-1,4-thiazin-3-yl)-4-fluorophenyl)amino)-5-fluoro-1,7-naphthyridin-3-ol] | –
